Test results published in doi:10.1101/2025.01.23.634444v1, “The histidine kinase VraS orchestrates the cell-wall stress response in Staphylococcus aureus via its direct interaction with glycopeptides and β-lactams” (biorxiv, 2025).

Key:
VraS (VraS-H6x) [1] = target: T1, VraS (VraS-H6x) (Staphylococcus aureus, UniProt A0A0H2XJC3); assay: saturation transfer difference NMR; format: binding; design: full-length, C-terminal His6 tag kept, codon-optimised synthetic gene, pET24a(+), expressed in E. coli BL21 Star (DE3) membranes, purified in DDM, reconstituted in liposomes; 347 residues, 40,867 Da tagged; dimer in DDM; conditions: 20 µM VraS, 400 µM ampicillin, sodium phosphate pH 7.4, 280 mM NaCl, 6 mM KCl, 0.01% DDM, 10% D2O
VraS (VraS-H6x) [2] = target: T1, VraS (VraS-H6x); assay: biochemical

Row | IC50 (VraS (VraS-H6x) [2]) [µM] | SMILES | STD (VraS (VraS-H6x) [1])
1 | – | CC1(C)S[C@@H]2[C@H](NC(=O)[C@H](N)c3ccccc3)C(=O)N2[C@H]1C(=O)O [ampicillin] | the difference spectrum demonstrated the interaction of ampicillin with VraS
2 | 1600 ± 300 | CN[C@H](CC(C)C)C(=O)N[C@H]1C(=O)N[C@@H](CC(N)=O)C(=O)N[C@H]2C(=O)N[C@H]3C(=O)N[C@H](C(=O)N[C@H](C(=O)O)c4cc(O)cc(O)c4-c4cc3ccc4O)[C@H](O)c3ccc(c(Cl)c3)Oc3cc2cc(c3O[C@@H]2O[C@H](CO)[C@@H](O)[C@H](O)[C@H]2O[C@H]2C[C@](C)(N)[C@H](O)[C@H](C)O2)Oc2ccc(cc2Cl)[C@H]1O [vancomycin] | –
